Counter-ions that a name gives are not always drawn.
Legend:
human FGFR-3 = human FGFR-3 (Homo sapiens (Human), UniProt P22607); experiment: FGFR-3 kinase assay (TR-FRET); format: biochemical; settings: 10 μM ATP, 15 min pre-incubation with enzyme
human mTOR = human mTOR (Homo sapiens (Human), UniProt P42345); experiment: mTOR kinase assay (TR-FRET, for comparative purposes); format: biochemical; settings: read-out: mTOR % inhibition @ 1 μM, 1 μM test compound, 40 μM ATP, mean values
human FGFR-1 = human FGFR-1 (Homo sapiens, UniProt P11362); experiment: FGFR-1 high ATP kinase assay (TR-FRET)
human FGFR-1, sequence (P11362 22-822 limits assumed): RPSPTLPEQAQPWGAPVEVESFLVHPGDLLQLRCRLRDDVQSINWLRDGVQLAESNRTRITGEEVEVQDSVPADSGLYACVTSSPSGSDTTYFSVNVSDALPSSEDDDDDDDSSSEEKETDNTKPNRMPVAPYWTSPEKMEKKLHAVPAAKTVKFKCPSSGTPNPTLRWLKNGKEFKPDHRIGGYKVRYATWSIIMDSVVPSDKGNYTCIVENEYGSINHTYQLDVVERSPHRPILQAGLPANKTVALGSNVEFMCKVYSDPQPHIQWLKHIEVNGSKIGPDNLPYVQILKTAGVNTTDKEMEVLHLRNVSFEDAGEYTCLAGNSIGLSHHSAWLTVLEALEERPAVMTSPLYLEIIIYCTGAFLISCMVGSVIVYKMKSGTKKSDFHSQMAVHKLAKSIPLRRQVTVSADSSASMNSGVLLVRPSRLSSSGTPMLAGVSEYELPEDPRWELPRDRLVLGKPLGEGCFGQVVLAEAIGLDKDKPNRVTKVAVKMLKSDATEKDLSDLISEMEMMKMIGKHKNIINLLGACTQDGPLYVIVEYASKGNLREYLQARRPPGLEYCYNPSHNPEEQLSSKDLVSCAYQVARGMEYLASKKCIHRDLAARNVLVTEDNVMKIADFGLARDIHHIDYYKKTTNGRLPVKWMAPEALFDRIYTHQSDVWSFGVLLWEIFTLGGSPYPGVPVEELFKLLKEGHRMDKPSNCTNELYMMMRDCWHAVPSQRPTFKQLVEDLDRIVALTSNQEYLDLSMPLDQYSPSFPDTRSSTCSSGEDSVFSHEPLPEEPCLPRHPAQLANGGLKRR

[1] = tested on: Human umbilical vein endothelial cells (HUVEC); experiment: Inhibition of growth factor-mediated cell proliferation (hFGF-2); format: cell-based; settings: Homo sapiens, HUVEC, 72 h, 72 h exposure, hFGF-2 stimulated; from averaged pIC50 values
Method: Human umbilical vein endothelial cells (HUVEC) were obtained from Cellsystems (FC-0003) and grown in Vasculife VEGF complete medium (Cellsystems, LL-1020) containing 2% fetal bovine serum (FBS) at 37° C. and 5% CO2. The cells were used for proliferation assays up to passage 7.
The HUVEC cells were harvested using accutase (PAA, L11-007) and seeded in columns 2 to 12 of 96-well plates (Falcon MICROTEST tissue culture plate 96-well flat bottom, BD 353075, or μCLEAR-PLATE, black, 96-well, Greiner Bio-One, No. 655090) at a cell density of 2500 cells/well in 100 μl Vasculife VEGF complete medium with column 1 remaining empty as blank. Cells were allowed to incubate at 37° C. and 5% CO2 for at least 6 h. Then, the cells were washed once with PBS and starved overnight in Vasculife basal medium (Cellsystems, LM-0002) containing heparin, ascorbate and L-glutamine (components of the Vasculife Life Factors Kit, Cellsystems, LL-1020) as well as 0.2% FBS.
After about 18 h, the starving medium was discarded, and the cells were exposed for 72 h to 9 consecutive log or half-log concentrations of test compound in the range of 10 pM to 30 μM and to 5, 10 or 20 ng/ml hFGF-2 (recombinant human FGF basic, R&D Systems, 233-FB) in 100 μl starving medium. 10 mM stock solutions of test compounds in DMSO were diluted to 200× final concentration in DMSO resulting in a final DMSO concentration of 0.5% in all wells. Controls consisted of cells grown in starving medium only and of cells grown in hFGF-2 containing starving medium with 0.5% DMSO. To determine cell proliferation, 5 μl Alamar Blue solution (Biosource, DAL1100) was added to each well (1:20 dilution), and the cells were allowed to incubate for further 4 h at 37° C. and 5% CO2 before measuring fluorescence (ex. 535 nm, em. 595 nm) with a Spectrafluor Plus Tecan plate reader (XFLUOR4 version 4.20). In some experiments, an ATP Determination Kit (BIAFFIN GmbH, LBR-T100) was used according to the manufacturer's instructions. In each experiment, samples were assayed in triplicate, and the standard deviations were determined GraphPad Prism 5 software was used to analyze the data and to obtain IC50 values. All test compounds were assayed 2 to 10 times in independent experiments and similar results were obtained.

human mTOR, sequence (P42345 1360-2549): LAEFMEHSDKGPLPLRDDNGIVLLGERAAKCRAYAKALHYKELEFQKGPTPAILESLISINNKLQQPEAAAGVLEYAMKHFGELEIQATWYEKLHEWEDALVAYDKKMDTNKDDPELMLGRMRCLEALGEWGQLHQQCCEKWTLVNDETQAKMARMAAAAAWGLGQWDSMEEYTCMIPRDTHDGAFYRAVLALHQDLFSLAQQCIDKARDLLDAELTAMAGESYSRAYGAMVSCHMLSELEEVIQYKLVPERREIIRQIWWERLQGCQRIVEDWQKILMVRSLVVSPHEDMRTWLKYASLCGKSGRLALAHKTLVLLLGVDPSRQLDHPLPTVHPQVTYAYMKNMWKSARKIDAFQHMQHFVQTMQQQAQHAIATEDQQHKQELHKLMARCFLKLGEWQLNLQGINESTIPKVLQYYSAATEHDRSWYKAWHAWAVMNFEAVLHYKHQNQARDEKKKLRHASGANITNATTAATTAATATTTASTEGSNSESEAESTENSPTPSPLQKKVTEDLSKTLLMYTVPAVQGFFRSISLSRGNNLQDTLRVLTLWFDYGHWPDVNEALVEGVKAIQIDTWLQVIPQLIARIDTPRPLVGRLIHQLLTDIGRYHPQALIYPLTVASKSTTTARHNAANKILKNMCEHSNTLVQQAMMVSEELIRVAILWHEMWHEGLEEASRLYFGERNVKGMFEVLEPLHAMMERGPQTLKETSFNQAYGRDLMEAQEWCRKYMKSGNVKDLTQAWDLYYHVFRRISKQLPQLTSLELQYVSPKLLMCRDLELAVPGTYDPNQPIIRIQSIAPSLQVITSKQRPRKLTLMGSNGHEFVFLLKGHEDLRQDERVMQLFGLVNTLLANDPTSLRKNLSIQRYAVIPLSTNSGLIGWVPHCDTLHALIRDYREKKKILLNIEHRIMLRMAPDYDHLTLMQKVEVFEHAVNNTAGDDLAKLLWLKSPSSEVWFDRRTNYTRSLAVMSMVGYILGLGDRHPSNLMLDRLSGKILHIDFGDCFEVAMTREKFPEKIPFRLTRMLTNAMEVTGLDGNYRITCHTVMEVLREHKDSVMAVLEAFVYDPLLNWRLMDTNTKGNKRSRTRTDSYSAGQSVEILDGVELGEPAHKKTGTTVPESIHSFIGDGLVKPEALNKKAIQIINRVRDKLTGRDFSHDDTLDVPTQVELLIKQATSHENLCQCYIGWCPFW
human FGFR-3, sequence (P22607 397-806): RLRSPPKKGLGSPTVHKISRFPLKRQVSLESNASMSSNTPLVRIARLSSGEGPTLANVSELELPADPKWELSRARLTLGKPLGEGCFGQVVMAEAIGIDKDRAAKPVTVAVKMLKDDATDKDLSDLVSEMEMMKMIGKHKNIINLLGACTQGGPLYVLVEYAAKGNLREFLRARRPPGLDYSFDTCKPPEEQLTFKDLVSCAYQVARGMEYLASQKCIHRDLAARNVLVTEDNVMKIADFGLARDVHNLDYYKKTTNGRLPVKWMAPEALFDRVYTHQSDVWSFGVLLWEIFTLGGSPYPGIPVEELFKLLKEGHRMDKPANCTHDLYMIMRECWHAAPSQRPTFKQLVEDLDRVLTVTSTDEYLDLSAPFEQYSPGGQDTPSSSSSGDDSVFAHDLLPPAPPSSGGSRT

| SMILES | IC50 (human FGFR-3) | inhibition at 1 µM (human mTOR) | IC50 (human FGFR-1) | IC50 [1] |
| --- | --- | --- | --- | --- |
| COc1cc(C)cc2cc(-c3cc(C(=O)N4CCC[C@](C)(N)C4)n4ncnc(N)c34)sc12 [Example 105] | 0.0257 µM | 17.1% | 0.0204 µM | 0.137 µM |
| COc1cc(C)cc2cc(-c3cc(CNC(=O)CN)n4ncnc(N)c34)sc12 [Example 106, N-{[4-Amino-5-(7-methoxy-5-methyl-1-benzothiophen-2-yl)pyrrolo[2,1-f][1,2,4]triazin-7-yl]-methyl}glycinamide dihydrochloride] | 0.0626 µM | 5.6% | 0.0254 µM | 0.02 µM |

Reference: US9475815B2, “Substituted benzothienyl-pyrrolotriazines and uses thereof” (Bayer Intellectual Property GmbH, priority 2012, dated 2016)
